In PMC8209036, “Structural basis for late maturation steps of the human mitoribosomal large subunit” (Nature Communications, 2021):

Legend:
[1] = target: T1, GTPBP5 (GTPBP5::FLAG; GTPBP5^IP) (Homo sapiens, UniProt Q9H4K7); assay: cryo-EM structure; format: binding; settings: co-purified, not added; G-domain active site; switch I in state 2, bound to mt-LSU assembly intermediate
T1 construct: gene MTG2; Obg-domain and G-domain
T1 sequence (Q9H4K7 1-406): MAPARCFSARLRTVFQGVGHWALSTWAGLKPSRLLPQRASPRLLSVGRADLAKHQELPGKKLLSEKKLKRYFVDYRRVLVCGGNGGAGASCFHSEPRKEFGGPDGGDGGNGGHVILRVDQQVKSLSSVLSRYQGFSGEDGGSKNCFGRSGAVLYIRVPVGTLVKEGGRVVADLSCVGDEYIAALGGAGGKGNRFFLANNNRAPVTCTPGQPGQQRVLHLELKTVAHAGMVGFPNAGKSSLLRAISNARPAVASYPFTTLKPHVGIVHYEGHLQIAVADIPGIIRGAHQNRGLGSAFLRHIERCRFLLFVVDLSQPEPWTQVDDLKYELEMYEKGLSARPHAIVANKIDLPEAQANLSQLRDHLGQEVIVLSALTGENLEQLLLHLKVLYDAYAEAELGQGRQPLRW

[2] = target: T2, NSUN4 (MTERF4-NSUN4 complex) (Homo sapiens, UniProt Q96CB9); assay: cryo-EM structure; format: binding; settings: no RNA substrate in active site; co-purified, not added; complex bound to mt-LSU assembly intermediates
T2 construct: with Transcription termination factor 4, mitochondrial
T2 sequence (Q96CB9 26-384): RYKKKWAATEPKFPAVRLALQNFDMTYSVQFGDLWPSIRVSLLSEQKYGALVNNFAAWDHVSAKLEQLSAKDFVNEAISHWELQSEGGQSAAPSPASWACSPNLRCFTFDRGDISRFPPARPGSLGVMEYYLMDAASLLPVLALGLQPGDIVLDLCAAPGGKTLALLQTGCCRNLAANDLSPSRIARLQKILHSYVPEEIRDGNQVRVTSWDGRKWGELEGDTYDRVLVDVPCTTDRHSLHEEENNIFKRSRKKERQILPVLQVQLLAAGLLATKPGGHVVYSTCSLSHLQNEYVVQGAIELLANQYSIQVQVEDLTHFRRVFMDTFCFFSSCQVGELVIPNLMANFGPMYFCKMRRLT
T2 sequence (Q7Z6M4 43-381 partner): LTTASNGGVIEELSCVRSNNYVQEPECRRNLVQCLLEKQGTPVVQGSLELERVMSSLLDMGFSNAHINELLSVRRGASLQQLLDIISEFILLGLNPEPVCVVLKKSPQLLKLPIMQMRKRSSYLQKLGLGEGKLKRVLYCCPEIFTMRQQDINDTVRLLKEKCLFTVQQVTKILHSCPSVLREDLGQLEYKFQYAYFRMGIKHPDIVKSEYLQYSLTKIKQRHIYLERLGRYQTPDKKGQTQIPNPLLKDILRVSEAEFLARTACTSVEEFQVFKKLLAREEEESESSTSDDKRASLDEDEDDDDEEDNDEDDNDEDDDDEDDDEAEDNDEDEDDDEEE

SMILES | cryo-EM structure [1] | cryo-EM structure [2]
Nc1nc2c(ncn2[C@@H]2O[C@H](COP(=O)(O)OP(=O)(O)OP(=O)(O)O)[C@@H](O)[C@H]2O)c(=O)[nH]1 [GTP] | In our GTPBP5^IP structure, the G-domain has GTP in its active site | –
C[S+](CC[C@H](N)C(=O)O)C[C@H]1O[C@@H](n2cnc3c(N)ncnc32)[C@H](O)[C@@H]1O (some centres unmarked) [S-adenosyl-methionine] | – | the methyl-donor S-adenosyl-methionine (SAM) is observed in the NSUN4 active site
